Measured values from ChEMBL document CHEMBL4665642, “Anticancer profile of newly synthesized BRAF inhibitors possess 5-(pyrimidin-4-yl)imidazo[2,1-b]thiazole scaffold” (Bioorg Med Chem, 2019).

How the values were obtained:
Format in all cases: functional
Conditions in all cases: read-out: Activity
SN12C = experiment: Cytotoxicity against human SN12C cells assessed as cell viability at 10 uM incubated for 48 hrs by sulforhodamine B assay relative to control
CAKI-1 = experiment: Cytotoxicity against human CAKI-1 cells assessed as cell viability at 10 uM incubated for 48 hrs by sulforhodamine B assay relative to control
ACHN = experiment: Cytotoxicity against human ACHN cells assessed as cell viability at 10 uM incubated for 48 hrs by sulforhodamine B assay relative to control
NCI-H460 = experiment: Cytotoxicity against human NCI-H460 cells assessed as cell viability at 10 uM incubated for 48 hrs by sulforhodamine B assay relative to control
786-0 = experiment: Cytotoxicity against human 786-0 cells assessed as cell viability at 10 uM incubated for 48 hrs by sulforhodamine B assay relative to control
HL-60(TB) = experiment: Cytotoxicity against human HL-60(TB) cells assessed as cell viability at 10 uM incubated for 48 hrs by sulforhodamine B assay relative to control
HOP-92 = experiment: Cytotoxicity against human HOP-92 cells assessed as cell viability at 10 uM incubated for 48 hrs by sulforhodamine B assay relative to control
LOX IMVI = experiment: Cytotoxicity against human LOX IMVI cells assessed as cell viability at 10 uM incubated for 48 hrs by sulforhodamine B assay relative to control
SK-OV-3 = experiment: Cytotoxicity against human SK-OV-3 cells assessed as cell viability at 10 uM incubated for 48 hrs by sulforhodamine B assay relative to control
SK-MEL-28 = experiment: Cytotoxicity against human SK-MEL-28 cells assessed as cell viability at 10 uM incubated for 48 hrs by sulforhodamine B assay relative to control
K562 = experiment: Cytotoxicity against human K562 cells assessed as cell viability at 10 uM incubated for 48 hrs by sulforhodamine B assay relative to control
NCI-H23 = experiment: Cytotoxicity against human NCI-H23 cells assessed as cell viability at 10 uM incubated for 48 hrs by sulforhodamine B assay relative to control
NCI/ADR-RES = experiment: Cytotoxicity against human NCI/ADR-RES cells assessed as cell viability at 10 uM incubated for 48 hrs by sulforhodamine B assay relative to control
TK-10 = experiment: Cytotoxicity against human TK-10 cells assessed as cell viability at 10 uM incubated for 48 hrs by sulforhodamine B assay relative to control
RPMI-8226 = experiment: Cytotoxicity against human RPMI-8226 cells assessed as cell viability at 10 uM incubated for 48 hrs by sulforhodamine B assay relative to control
KM12 = experiment: Cytotoxicity against human KM12 cells assessed as cell viability at 10 uM incubated for 48 hrs by sulforhodamine B assay relative to control
SF-295 = experiment: Cytotoxicity against human SF-295 cells assessed as cell viability at 10 uM incubated for 48 hrs by sulforhodamine B assay relative to control
SNB-19 = experiment: Cytotoxicity against human SNB-19 cells assessed as cell viability at 10 uM incubated for 48 hrs by sulforhodamine B assay relative to control
SF-268 = experiment: Cytotoxicity against human SF-268 cells assessed as cell viability at 10 uM incubated for 48 hrs by sulforhodamine B assay relative to control
PC-3 = experiment: Cytotoxicity against human PC-3 cells assessed as cell viability at 10 uM incubated for 48 hrs by sulforhodamine B assay relative to control
BT-549 = experiment: Cytotoxicity against human BT-549 cells assessed as cell viability at 10 uM incubated for 48 hrs by sulforhodamine B assay relative to control
HOP-62 = experiment: Cytotoxicity against human HOP-62 cells assessed as cell viability at 10 uM incubated for 48 hrs by sulforhodamine B assay relative to control
NCI-H226 = experiment: Cytotoxicity against human NCI-H226 cells assessed as cell viability at 10 uM incubated for 48 hrs by sulforhodamine B assay relative to control
HCT-29 = experiment: Cytotoxicity against human […] cells assessed as cell viability at 10 uM incubated for 48 hrs by sulforhodamine B assay relative to control
A549 = experiment: Cytotoxicity against human A549 cells assessed as cell viability at 10 uM incubated for 48 hrs by sulforhodamine B assay relative to control
MDA-MB-468 = experiment: Cytotoxicity against human MDA-MB-468 cells assessed as cell viability at 10 uM incubated for 48 hrs by sulforhodamine B assay relative to control
CCRF-CEM = experiment: Cytotoxicity against human CCRF-CEM cells assessed as cell viability at 10 uM incubated for 48 hrs by sulforhodamine B assay relative to control
DU-145 = experiment: Cytotoxicity against human DU-145 cells assessed as cell viability at 10 uM incubated for 48 hrs by sulforhodamine B assay relative to control
M14 = experiment: Cytotoxicity against human M14 cells assessed as cell viability at 10 uM incubated for 48 hrs by sulforhodamine B assay relative to control
HCT-15 = experiment: Cytotoxicity against human HCT-15 cells assessed as cell viability at 10 uM incubated for 48 hrs by sulforhodamine B assay relative to control
IGROV-1 = experiment: Cytotoxicity against human IGROV-1 cells assessed as cell viability at 10 uM incubated for 48 hrs by sulforhodamine B assay relative to control
OVCAR-4 = experiment: Cytotoxicity against human OVCAR-4 cells assessed as cell viability at 10 uM incubated for 48 hrs by sulforhodamine B assay relative to control
MDA-MB-231 = experiment: Cytotoxicity against human MDA-MB-231 cells assessed as cell viability at 10 uM incubated for 48 hrs by sulforhodamine B assay relative to control
OVCAR-3 = experiment: Cytotoxicity against human OVCAR-3 cells assessed as cell viability at 10 uM incubated for 48 hrs by sulforhodamine B assay relative to control
MCF7 = experiment: Cytotoxicity against human MCF7 cells assessed as cell viability at 10 uM incubated for 48 hrs by sulforhodamine B assay relative to control
SR = experiment: Cytotoxicity against human SR cells assessed as cell viability at 10 uM incubated for 48 hrs by sulforhodamine B assay relative to control
NCI-H322M = experiment: Cytotoxicity against human NCI-H322M cells assessed as cell viability at 10 uM incubated for 48 hrs by sulforhodamine B assay relative to control
MDA-MB-435 = experiment: Cytotoxicity against human MDA-MB-435 cells assessed as cell viability at 10 uM incubated for 48 hrs by sulforhodamine B assay relative to control
SNB-75 = experiment: Cytotoxicity against human SNB-75 cells assessed as cell viability at 10 uM incubated for 48 hrs by sulforhodamine B assay relative to control
OVCAR-8 = experiment: Cytotoxicity against human OVCAR-8 cells assessed as cell viability at 10 uM incubated for 48 hrs by sulforhodamine B assay relative to control
COLO 205 = experiment: Cytotoxicity against human COLO 205 cells assessed as cell viability at 10 uM incubated for 48 hrs by sulforhodamine B assay relative to control

Question: With `O=S(=O)(NCCCNc1nccc(-c2c(-c3cccc(F)c3)nc3sccn23)n1)c1ccc(O)cc1` as the compound, how does the viability at 10 µM (SN12C) read?
Answer: The viability at 10 µM was 58.7%.

Question: What about the viability at 10 µM (CAKI-1) of the same compound?
Answer: Its viability at 10 µM is 51.9%.

Question: What about the viability at 10 µM (ACHN) of the same compound?
Answer: Its viability at 10 µM is 43.7%.

Question: What about the viability at 10 µM (NCI-H460) of the same compound?
Answer: Its viability at 10 µM is 52.9%.

Question: And the viability at 10 µM (786-0)?
Answer: Its viability at 10 µM is 65.5%.

Question: And the viability at 10 µM (HL-60(TB))?
Answer: The viability at 10 µM was 107%.

Question: What about the viability at 10 µM (HOP-92) of the same compound?
Answer: Its viability at 10 µM is 98.1%.

Question: And the viability at 10 µM (LOX IMVI)?
Answer: Its viability at 10 µM is 61.2%.

Question: And the viability at 10 µM (SK-OV-3)?
Answer: The viability at 10 µM was 86.4%.

Question: What about the viability at 10 µM (SK-MEL-28) of the same compound?
Answer: Its viability at 10 µM is 95.9%.

Question: What about the viability at 10 µM (K562) of the same compound?
Answer: Its viability at 10 µM is 55.1%.

Question: And the viability at 10 µM (NCI-H23)?
Answer: The viability at 10 µM was 87.6%.

Question: What about the viability at 10 µM (NCI/ADR-RES) of the same compound?
Answer: The viability at 10 µM was 79.1%.

Question: What about the viability at 10 µM (TK-10) of the same compound?
Answer: The viability at 10 µM was 87.6%.

Question: And the viability at 10 µM (RPMI-8226)?
Answer: Its viability at 10 µM is 73.6%.

Question: And the viability at 10 µM (KM12)?
Answer: The viability at 10 µM was 27.4%.

Question: What about the viability at 10 µM (SF-295) of the same compound?
Answer: The viability at 10 µM was 92%.

Question: What about the viability at 10 µM (SNB-19) of the same compound?
Answer: The viability at 10 µM was 77.7%.

Question: What about the viability at 10 µM (SF-268) of the same compound?
Answer: Its viability at 10 µM is 62.8%.

Question: And the viability at 10 µM (PC-3)?
Answer: The viability at 10 µM was 75%.

Question: What about the viability at 10 µM (BT-549) of the same compound?
Answer: The viability at 10 µM was 82.5%.

Question: What about the viability at 10 µM (HOP-62) of the same compound?
Answer: Its viability at 10 µM is 89%.

Question: What about the viability at 10 µM (NCI-H226) of the same compound?
Answer: Its viability at 10 µM is 64.3%.

Question: And the viability at 10 µM (HCT-29)?
Answer: Its viability at 10 µM is 41.8%.

Question: What about the viability at 10 µM (A549) of the same compound?
Answer: The viability at 10 µM was 47.1%.

Question: What about the viability at 10 µM (MDA-MB-468) of the same compound?
Answer: The viability at 10 µM was 60.4%.

Question: And the viability at 10 µM (CCRF-CEM)?
Answer: Its viability at 10 µM is 67.6%.

Question: What about the viability at 10 µM (DU-145) of the same compound?
Answer: Its viability at 10 µM is 77.4%.

Question: And the viability at 10 µM (M14)?
Answer: The viability at 10 µM was 70.3%.

Question: And the viability at 10 µM (HCT-15)?
Answer: The viability at 10 µM was 43.5%.

Question: And the viability at 10 µM (IGROV-1)?
Answer: Its viability at 10 µM is 32.6%.

Question: What about the viability at 10 µM (OVCAR-4) of the same compound?
Answer: Its viability at 10 µM is 82.4%.

Question: What about the viability at 10 µM (MDA-MB-231) of the same compound?
Answer: Its viability at 10 µM is 83.9%.

Question: What about the viability at 10 µM (OVCAR-3) of the same compound?
Answer: Its viability at 10 µM is 80.5%.

Question: And the viability at 10 µM (MCF7)?
Answer: The viability at 10 µM was 32.2%.

Question: What about the viability at 10 µM (SR) of the same compound?
Answer: The viability at 10 µM was 52.6%.

Question: What about the viability at 10 µM (NCI-H322M) of the same compound?
Answer: Its viability at 10 µM is 79.2%.

Question: What about the viability at 10 µM (MDA-MB-435) of the same compound?
Answer: Its viability at 10 µM is 33.4%.

Question: And the viability at 10 µM (SNB-75)?
Answer: Its viability at 10 µM is 77.8%.

Question: And the viability at 10 µM (OVCAR-8)?
Answer: Its viability at 10 µM is 66.2%.

Question: And the viability at 10 µM (COLO 205)?
Answer: The viability at 10 µM was 48.4%.

Question: What does the source list for `O=S(=O)(NCCCNc1nccc(-c2c(-c3cccc(F)c3)nc3sccn23)n1)c1ccc(F)cc1`?
Answer: viability at 10 µM (SN12C): 71.5%; viability at 10 µM (CAKI-1): 57.8%; viability at 10 µM (ACHN): 64.2%; viability at 10 µM (NCI-H460): 87.8%; viability at 10 µM (786-0): 73.6%; viability at 10 µM (HL-60(TB)): 103%; viability at 10 µM (HOP-92): 102%; viability at 10 µM (LOX IMVI): 56%; viability at 10 µM (SK-OV-3): 81.6%; viability at 10 µM (SK-MEL-28): 96.9%; viability at 10 µM (K562): 41.6%; viability at 10 µM (NCI-H23): 83.7%; viability at 10 µM (NCI/ADR-RES): 60%; viability at 10 µM (TK-10): 99.7%; viability at 10 µM (RPMI-8226): 51%; viability at 10 µM (KM12): 62.7%; viability at 10 µM (SF-295): 92.7%; viability at 10 µM (SNB-19): 95.9%; viability at 10 µM (SF-268): 73.9%; viability at 10 µM (PC-3): 58.9%; viability at 10 µM (BT-549): 79.9%; viability at 10 µM (HOP-62): 101%; viability at 10 µM (NCI-H226): 56.2%; viability at 10 µM (HCT-29): 46.2%; viability at 10 µM (A549): 74%; viability at 10 µM (MDA-MB-468): 77.4%; viability at 10 µM (CCRF-CEM): 53.7%; viability at 10 µM (DU-145): 84.5%; viability at 10 µM (M14): 59.4%; viability at 10 µM (HCT-15): 44.5%; viability at 10 µM (IGROV-1): 36.9%; viability at 10 µM (OVCAR-4): 65.7%; viability at 10 µM (MDA-MB-231): 94.2%; viability at 10 µM (OVCAR-3): 83.5%; viability at 10 µM (MCF7): 70.1%; viability at 10 µM (SR): 95.8%; viability at 10 µM (NCI-H322M): 100%; viability at 10 µM (MDA-MB-435): 50.4%; viability at 10 µM (SNB-75): 98.5%; viability at 10 µM (OVCAR-8): 49.8%; viability at 10 µM (COLO 205): 43.7%
